# Experimental data: PMC5029806, “Streptococcus pneumoniae TIGR4 Flavodoxin: Structural and Biophysical Characterization of a Novel Drug Target” (PLoS ONE, 2016)
# Target: T1, Streptococcus pneumoniae TIGR4 flavodoxin (SpFld) (Streptococcus pneumoniae, UniProt A0A0H2UQC6)
# T1 construct: gene fld; apo form for ITC, SeMet holo form for the crystal structure
# Experiment: ITC at […]°C ([…] NaCl, […] MES, pH […]); crystal structure of the FMN complex; thermal stabilization by CD, fluorescence and DSC
# Assay type: binding
# T1 sequence (A0A0H2UQC6 entry or part of it): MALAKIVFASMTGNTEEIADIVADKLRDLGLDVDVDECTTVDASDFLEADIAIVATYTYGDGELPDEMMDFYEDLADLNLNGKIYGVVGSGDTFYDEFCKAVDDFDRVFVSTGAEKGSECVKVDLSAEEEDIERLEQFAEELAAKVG
smiles,measurement,value
Cc1cc2nc3c(=O)[nH]c(=O)nc-3n(C[C@H](O)[C@H](O)[C@H](O)COP(=O)(O)O)c2cc1C [FMN],Kd,83 ± 9 nM
